Data set [1] can be described thus: Antioxidant activity of the compound assessed as DPPH radical scavenging activity incubated in dark condition for 15 mins by colorimetric method. The settings on record: 0.25 h. Format: physicochemical. (Loss of DPPH colour is used to gauge radical scavenging.)
A short description of data set [2]: Inhibition of baker's yeast alpha-glucosidase. Also on record: species or system Saccharomyces cerevisiae.
Data set [3] is described as follows: Antioxidant activity of the compound assessed as DPPH radical scavenging activity at 5 mg/ml incubated in dark condition for 15 mins by colorimetric method relative to control. Format: physicochemical. Conditions: 0.25 h.
For the next data set, the system named is Saccharomyces cerevisiae. The data set is described as follows: Inhibition of baker's yeast alpha-glucosidase at 10 mg/ml relative to control.

pIC50: −log10 of the molar value.

In general, pIC50 refers to the IC50 on a negative log10 scale, so that one unit is a factor of ten. Low readings indicate a large IC50, high ones a small IC50. For `COc1cc(CN[C@H]2C[C@@H](O)[C@H](O)[C@@H](O)[C@H]2O)ccc1O`, the SC50 in data set [1] was determined as 2.1 mM. Also, the pIC50 in data set [2] was 4.03. As to `OC(CN[C@H]1C[C@@H](O)[C@H](O)[C@@H](O)[C@H]1O)c1ccccc1` (stereo partly drawn), in data set [3], the Activity is on record as less than 20%. Besides, the pIC50 in data set [2] was 2.52. In the case of `O=Cc1ccc(O)cc1` [4-HYDROXYBENZALDEHYDE], in data set [3], the Activity is less than 20%. By inhibition is commonly meant the share of the control response that was lost under treatment. Low values mean a response near the control, high ones a response far below the control. Take `O[C@@H]1[C@@H](O)[C@H](O)C[C@H](NCc2cccnc2)[C@@H]1O`: the Activity in data set [3] was less than 20%. For the same compound, in the data set with Saccharomyces cerevisiae, the inhibition is less than 30%. Take `O[C@@H]1[C@@H](O)[C@H](O)C[C@H](NCc2ccc(Br)cc2)[C@@H]1O`: the Activity in data set [3] is recorded as less than 20%. The negative logarithm of the IC50 (pIC50) in data set [2] is 2.50. The like results for `C[C@H]1O[C@H](O[C@H]2[C@H](O)[C@@H](O)[C@@H](O[C@H]3[C@H](O)[C@@H](O)C(O)O[C@@H]3CO)O[C@@H]2CO)[C@H](O)[C@@H](O)[C@@H]1N[C@H]1C=C(CO)[C@@H](O)[C@H](O)[C@H]1O` (stereo partly drawn) [ACARBOSE] were, in that order, less than 20% and 3.32. Regarding `O[C@@H]1[C@@H](O)[C@H](O)C[C@H](NCc2cccs2)[C@@H]1O`, the Activity in data set [3] was less than 20%. In the data set with Saccharomyces cerevisiae, this compound showed an inhibition of less than 30%. In the case of `COc1cc(C=O)ccc1O` [VANILLIN], the SC50 in data set [1] was found to be 4.9 mM. Turning to `Oc1ccc(CN[C@H]2C[C@@H](O)[C@H](O)[C@@H](O)[C@H]2O)cc1`, the SC50 in data set [1] is on record as 16.2 mM. Also, the pIC50 in data set [2] is 3.96. The corresponding values for `CC(C)(C)c1cc(CN[C@H]2C[C@@H](O)[C@H](O)[C@@H](O)[C@H]2O)cc(C(C)(C)C)c1O` are 0.4 mM and 4.05. Turning to `CC(C)(C)c1cc(C=O)cc(C(C)(C)C)c1O`, the SC50 in data set [1] came out at 1.4 mM. Turning to `N[C@H]1C[C@@H](O)[C@H](O)[C@@H](O)[C@H]1O`, in data set [3], the Activity is less than 20%. In addition, the pIC50 in data set [2] is 2.54. The corresponding values for `O[C@@H]1[C@@H](O)[C@H](O)C[C@H](NCCc2ccccc2)[C@@H]1O` are less than 20% and 2.87.
